Measurements published in patent publication US5661001A, “High molecular weight desulphatohirudin” (Ciba-Geigy Corporation, priority 1993, dated 1997).

How the values were obtained:
[1] = biological target: α-thrombin (Homo sapiens, UniProt P00734); experiment: antithrombin activity: inhibition of α-thrombin digesting Chromozym TH; type: biochemical
Protocol: The amino acid composition is determined by the dimethylaminoazobenzene sulfonyl (dabsyl) chloride method (Chang et al. Anal. Biochem. (1991), 197, 52-58.), which allows direct quantization of the disulfide content. The amino acid sequence was analyzed by an Applied Biosystem Inc. 470A protein sequencer. The antithrombin activity of desulphatohirudin derivatives was assessed by their ability to inhibit α-thrombin from digesting Chromozym TH (Boehringer Mannheim), using the described protocol (Stone et al. Biochemistry (1986), 25, 4622-4628; Chatrenet et al. J. Biol. Chem. (1992), 267, 3038-3043). The molecular weight of desulphatohirudin is […], determined by the laser desorption ionization mass spectrometry using a home-built instrument (Boernsen et al. Chimia (1990), 44, 412-416).

[2] = biological target: human thrombin (Homo sapiens, UniProt P00734); experiment: kinetic parameters for inhibition of human thrombin (progress-curve experiments, D-Phe-pipecolyl-Arg-p-nitroanilide); type: biochemical; settings: substrate 100 μM, enzyme 20 pM; weighted means of two determinations
Protocol: The kinetic parameters of the [Cys^33 ]HV1--[Cys^33 ]HV1 dimer are determined from progress-curve experiments as described by Stone et al. Biochemistry (1986), 25, 4622-4628 and Braun et al. Biochemistry, (1988), 27, 6517-6522. For each determination, the formation of p-nitroaniline from D-Phe-pipecolyl-Arg-p-nitroanilide is monitored in six assays, one in absence of inhibitor and the others with different concentrations of inhibitor ranging from 10 to 60 pM for the [Cys^33 ]HV1--[Cys^33 ]HV1 dimer. The substrat concentration is 100 μM and the enzyme concentration is 20 pM.
The kinetic parameters are determined twice and values given in table 2 represent the weightened means of the estimates.

[3] = tested on: plasma APTT; experiment: ex vivo plasma APTT after subcutaneous administration in the rat; settings: s.c. 1 ml/kg, dimer 4.5 mg/ml, HV1 3.0 mg/ml, mean±SEM, n=5
Protocol: (APTT=activated partial thrombin time)
[Cys^33 ]HV1--[Cys^33 ]HV1 dimer is dissolved in saline to a concentration of 4.5 mg/ml and unmodified hirudin-monomer is dissolved in saline to a concentration of 3.0 mg/ml (these doses are chosen based on the in vitro results in order to achieve a similar effect on APTT at 1 h). Solutions are administered subcutaneously to rats (1 ml/kg). At various times after administration, blood (2 ml) is collected by cardiac puncture directly into one tenth volume trisodium titrate solution (3.8% w/v) and immediately mixed. The anticoagulated blood is centrifuged at 2500 g for 20 min to obtain platelet free plasma.
Plasma samples are assayed for APTT using standard methods on the Instrumentation Laboratory ACL 300R coagulometer. The method for APTT determination utilizes the Instrumentation Laboratory ellagic acid test kit--plasma (50 μl) is incubated with ellagic acid activating reagent (50 μl) at 37° C. for 5 min prior to the addition of calcium chloride solution (50 μl of 25 mM solution) and the time taken for the plasma clot is recorded automatically, the end point being determined optically by the light scattered when the fibrin network formed (see table 1).
The results are expressed as a multiple of the means control APTT value and presented as mean±standard error of the mean (n=5).

Substance | potency of thrombin inhibition, monomer versus dimer ([1]; comparison of Cys33 monomer and dimer) | 10^8 k1 [2] | thrombin inhibition (inhibitory activity, equal weight basis) ([1]; 1 nM desulphatohirudin, 1.5 nM α-thrombin) | APTT as multiple of the mean control APTT value ([3]; 0 hours) | APTT as multiple of the mean control APTT value ([3]; 1 hour) | APTT as multiple of the mean control APTT value ([3]; 4 hours) | APTT as multiple of the mean control APTT value ([3]; 6 hours)
Cys^33 monomer: mutant of recombinant desulphatohirudin HV1 with cysteine replacing aspartic acid at position 33 (SEQ ID NO: 8) | nearly indistinguishable (±3%) |  |  |  |  |  | 
HV1: unmodified desulphatohirudin variant 1 monomer, used as comparator |  | 1.37 ± 0.03 M^-1 s^-1 | 82±5% | 1.00 ± 0.02 multiple of control APTT | 2.44 ± 0.07 multiple of control APTT | 1.43 ± 0.05 multiple of control APTT | 0.95 ± 0.02 multiple of control APTT
